Patent US10239832B2, “N-(1-hydroxy-3-(pyrrolidinyl)propan-2-yl)pyrrolidine-3-carboxamide derivatives as glucosylceramide synthase inhibitors” (BIOMARIN PHARMACEUTICAL INC., priority 2013, dated 2019)

Target: T1, GCS (Canis lupus familiaris, UniProt A0A8I3MXG6)
T1 construct: endogenous in cells; host or cells: MDCK (Madin-Darby canine kidney) cells, whole-cell lysate
T1 sequence (A0A8I3MXG6 1-394): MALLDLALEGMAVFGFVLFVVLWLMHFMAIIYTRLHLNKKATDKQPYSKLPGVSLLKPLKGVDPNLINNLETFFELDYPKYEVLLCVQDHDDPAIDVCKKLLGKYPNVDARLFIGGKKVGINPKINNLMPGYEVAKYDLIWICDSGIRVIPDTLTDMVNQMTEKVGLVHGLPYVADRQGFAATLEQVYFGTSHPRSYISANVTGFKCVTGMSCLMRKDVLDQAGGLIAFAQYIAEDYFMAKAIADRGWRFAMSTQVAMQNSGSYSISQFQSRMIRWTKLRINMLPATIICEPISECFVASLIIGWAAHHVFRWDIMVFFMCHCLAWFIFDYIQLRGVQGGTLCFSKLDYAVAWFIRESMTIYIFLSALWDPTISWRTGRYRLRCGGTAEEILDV
Assay: GCS enzymatic assay (MDCK cell lysate, NBD-ceramide to glucosylceramide, LC/MS)
Type: biochemical, canine
Conditions: Table 2; class symbols A, B, C; the table does not say which of the assays; read-out: Data Range (IC50 values)
Outline: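 IC50 or percent inhibition came from LC/MS/MS (ESI+, MRM) of NBD-ceramide and glucosylceramide, with tolbutamide as internal standard. The reaction used MDCK (canine) cell lysate as the enzyme source and was ended with acetonitrile. Mock wells received 0.1% DMSO.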

| Compound | IC50 |
| --- | --- |
| O=C(N[C@H](CN1CCC1)[C@H](O)c1ccc(OC2COC2)c(Cl)c1)[C@@H]1CCN(c2ccc3cc(F)ccc3c2)C1 [Compound 122, (R)-N-((1R,2R)-3-(azetidin-1-yl)-1-(3-chloro-4-(oxetan-3-yloxy)phenyl)-1-hydroxypropan-2-yl)-1-(6-fluoronaphthalen-2-yl)pyrrolidine-3-carboxamide] | 1 to 30 nM |
| O=C(N[C@H](CN1CCCC1)[C@H](O)c1cc(F)c2c(c1)OCCO2)[C@]1(O)CCN(c2ccc(Cl)cc2)C1 [Compound 154, (S)-1-(4-chlorophenyl)-N-((1R,2R)-1-(8-fluoro-2,3-dihydrobenzo[b][1,4]dioxin-6-yl)-1-hydroxy-3-(pyrrolidin-1-yl)propan-2-yl)-3-hydroxypyrrolidine-3-carboxamide] | 1 to 30 nM |
| O=C(N[C@H](CN1CCCC1)[C@H](O)c1ccc(OC(F)F)cc1)[C@@H]1CCN(c2ccccc2)C1 [Compound 161, (R)-N-((1R,2R)-1-(4-(difluoromethoxy)phenyl)-1-hydroxy-3-(pyrrolidin-1-yl)propan-2-yl)-1-phenylpyrrolidine-3-carboxamide] | 1 to 30 nM |
| O=C(N[C@H](CN1CCCC1)[C@H](O)c1ccc2c(c1)OCCO2)[C@@H]1CCN(c2ccc3ccccc3n2)C1 [Compound 72, (R)-N-((1R,2R)-1-(2,3-dihydrobenzo[b][1,4]dioxin-6-yl)-1-hydroxy-3-(pyrrolidin-1-yl)propan-2-yl)-1-(quinolin-2-yl)pyrrolidine-3-carboxamide] | 1 to 30 nM |
| CC(C)(O)COc1ccc([C@@H](O)[C@@H](CN2CCCC2)NC(=O)[C@@H]2CCN(c3ccc4ccccc4c3)C2)cc1Cl [Compound 107, (R)-N-((1R,2R)-1-(3-chloro-4-(2-hydroxy-2-methylpropoxy)phenyl)-1-hydroxy-3-(pyrrolidin-1-yl)propan-2-yl)-1-(naphthalen-2-yl)pyrrolidine-3-carboxamide] | 1 to 30 nM |
| O=C(N[C@H](CN1CCCC1)[C@H](O)c1ccc(OC2CC2)c(Cl)c1)[C@@H]1CCN(c2ccccc2)C1 [Compound 150, (R)-N-((1R,2R)-1-(3-chloro-4-cyclopropoxyphenyl)-1-hydroxy-3-(pyrrolidin-1-yl)propan-2-yl)-1-phenylpyrrolidine-3-carboxamide] | 1 to 30 nM |

Results, then the compound that gave them:

| IC50 | Compound |
| --- | --- |
| 1 to 30 nM | O=C(N[C@H](CN1CCCC1)[C@H](O)c1ccc(OC2CC2)c(Cl)c1)[C@@H]1CCN(c2ccc(Cl)c(OC3CCCCC3)c2)C1 [Compound 136, (R)-1-(4-chloro-3-(cyclohexyloxy)phenyl)-N-((1R,2R)-1-(3-chloro-4-cyclopropoxyphenyl)-1-hydroxy-3-(pyrrolidin-1-yl)propan-2-yl)pyrrolidine-3-carboxamide] |
| 1 to 30 nM | O=C(N[C@H](CN1CCC1)[C@H](O)c1ccc2c(c1)OCCO2)[C@@H]1CCN(c2ccc(Cl)cc2)C1 [Compound 78, (R)-N-((1R,2R)-3-(azetidin-1-yl)-1-(2,3-dihydrobenzo[b][1,4]dioxin-6-yl)-1-hydroxypropan-2-yl)-1-(4-chlorophenyl)pyrrolidine-3-carboxamide] |
| 1 to 30 nM | O=C(N[C@H](CN1CCCC1)[C@H](O)c1ccc2c(c1)OCCO2)[C@@H]1CCN(c2ccc3cc(Cl)ccc3n2)C1 [Compound 99, (R)-1-(6-chloroquinolin-2-yl)-N-((1R,2R)-1-(2,3-dihydrobenzo[b][1,4]dioxin-6-yl)-1-hydroxy-3-(pyrrolidin-1-yl)propan-2-yl)pyrrolidine-3-carboxamide] |
| 30 to 100 nM | O=C(N[C@H](CN1CCCC1)[C@H](O)c1cc2c(c(C(F)(F)F)c1)OCCO2)[C@@H]1CCN(c2ccc(Cl)cc2)C1 [Compound 137, (R)-1-(4-chlorophenyl)-N-((1R,2R)-1-hydroxy-3-(pyrrolidin-1-yl)-1-(8-(trifluoromethyl)-2,3-dihydrobenzo[b][1,4]dioxin-6-yl)propan-2-yl)pyrrolidine-3-carboxamide] |
| 1 to 30 nM | O=C(N[C@H](CN1CCCC1)[C@H](O)c1cc(F)c2c(c1)OCCO2)[C@@H]1CCN(c2ccc3ccccc3n2)C1 [Compound 68, (R)-N-((1R,2R)-1-(8-fluoro-2,3-dihydrobenzo[b][1,4]dioxin-6-yl)-1-hydroxy-3-(pyrrolidin-1-yl)propan-2-yl)-1-(quinolin-2-yl)pyrrolidine-3-carboxamide] |

Same assay, conditions: Table 2; class symbols D, E, F, NA (not active); the table does not say which of the assays

| Compound | Data Range (% inhibition) |
| --- | --- |
| O=C(N[C@H](CN1CCCCC1)[C@H](O)c1ccc2c(c1)OCCO2)C1CCN(c2ccc(Cl)cc2)C1 (stereo partly drawn) [Compound 43D, 1-(4-chlorophenyl)-N-((1R,2R)-1-(2,3-dihydrobenzo[b][1,4]dioxin-6-yl)-1-hydroxy-3-(piperidin-1-yl)propan-2-yl)pyrrolidine-3-carboxamide] | F (1-49% (or less than 50%)) |
| O=C(N[C@H](CN1CCCC1)[C@H](O)c1ccc2c(c1)OCCO2)[C@H]1CCN(c2ccc(Cl)cn2)C1 [Compound 28D, (S)-1-(5-chloropyridin-2-yl)-N-((1R,2R)-1-(2,3-dihydrobenzo[b][1,4]dioxin-6-yl)-1-hydroxy-3-(pyrrolidin-1-yl)propan-2-yl)pyrrolidine-3-carboxamide] | NA (not active—a negative value was generated for % inhibition) |
| O=C(N[C@H](CN1CCC1)[C@H](O)c1ccc2c(c1)OCCO2)[C@H]1CCN(c2ccc3cc(F)ccc3c2)C1 [Compound 79B, (S)-N-((1R,2R)-3-(azetidin-1-yl)-1-(2,3-dihydrobenzo[b][1,4]dioxin-6-yl)-1-hydroxypropan-2-yl)-1-(6-fluoronaphthalen-2-yl)pyrrolidine-3-carboxamide] | E (50-74% (or less than 75%)) |
| O=C(N[C@H](CN1CCCC1)[C@H](O)c1ccc2c(c1)OCCO2)[C@H]1CCN(c2ccc3nccnc3c2)C1 [Compound 83D, (S)-N-((1R,2R)-1-(2,3-dihydrobenzo[b][1,4]dioxin-6-yl)-1-hydroxy-3-(pyrrolidin-1-yl)propan-2-yl)-1-(quinoxalin-6-yl)pyrrolidine-3-carboxamide] | NA (not active—a negative value was generated for % inhibition) |
| O=C(N[C@H](CN1CCCC1)[C@H](O)c1ccc(OC2CC2)c(Cl)c1)[C@@H]1CCN(c2ccc3c(c2)CCCC3)C1 [Compound 98, (R)-N-((1R,2R)-1-(3-chloro-4-cyclopropoxyphenyl)-1-hydroxy-3-(pyrrolidin-1-yl)propan-2-yl)-1-(5,6,7,8-tetrahydronaphthalen-2-yl)pyrrolidine-3-carboxamide] | D (75-100%) |
| O=C(N[C@H](CN1CCCCC1)[C@H](O)c1ccc2c(c1)OCCO2)C1CCN(c2ccc(F)cc2)C1 (stereo partly drawn) [Compound 46A, N-((1R,2R)-1-(2,3-dihydrobenzo[b][1,4]dioxin-6-yl)-1-hydroxy-3-(piperidin-1-yl)propan-2-yl)-1-(4-fluorophenyl)pyrrolidine-3-carboxamide] | F (1-49% (or less than 50%)) |
| O=C(N[C@H](CN1CCCC1)[C@H](O)c1ccc2c(c1)OCCO2)[C@@H]1CCN(CC2(O)CCOCC2)C1 [Compound 5, (R)-N-((1R,2R)-1-(2,3-dihydrobenzo[b][1,4]dioxin-6-yl)-1-hydroxy-3-(pyrrolidin-1-yl)propan-2-yl)-1-((4-hydroxytetrahydro-2H-pyran-4-yl)methyl)pyrrolidine-3-carboxamide] | F (1-49% (or less than 50%)) |
| O=C(N[C@H](CN1CCCCC1)[C@H](O)c1ccc2c(c1)OCCO2)[C@@H]1CCN(c2ccc(Cl)cc2)C1 [Compound 43, (R)-1-(4-chlorophenyl)-N-((1R,2R)-1-(2,3-dihydrobenzo[b][1,4]dioxin-6-yl)-1-hydroxy-3-(piperidin-1-yl)propan-2-yl)pyrrolidine-3-carboxamide] | F (1-49% (or less than 50%)) |
| O=C(N[C@H](CN1CCCC1)[C@H](O)c1ccc2c(c1)OCCO2)C1CCN(C2Cc3ccccc3C2)C1 (stereo partly drawn) [Compound 55A, 1-(2,3-dihydro-1H-inden-2-yl)-N-((1R,2R)-1-(2,3-dihydrobenzo[b][1,4]dioxin-6-yl)-1-hydroxy-3-(pyrrolidin-1-yl)propan-2-yl)pyrrolidine-3-carboxamide] | F (1-49% (or less than 50%)) |
| O=C(N[C@H](CN1CCCC1)[C@H](O)c1ccc2c(c1)OCCO2)[C@H]1CCN(c2ccc3cc(F)ccc3c2Cl)C1 [Compound 88D, (S)-1-(1-chloro-6-fluoronaphthalen-2-yl)-N-((1R,2R)-1-(2,3-dihydrobenzo[b][1,4]dioxin-6-yl)-1-hydroxy-3-(pyrrolidin-1-yl)propan-2-yl)pyrrolidine-3-carboxamide] | F (1-49% (or less than 50%)) |

The remaining lines, values ahead:

| Data Range (% inhibition) | Compound |
| --- | --- |
| F (1-49% (or less than 50%)) | O=C(N[C@H](CN1CCCC1)[C@H](O)c1ccc(OC2CC2)c(Cl)c1)C1CCN(c2ccc(C(F)(F)F)cc2)C1 (stereo partly drawn) [Compound 6, N-((1R,2R)-1-(3-chloro-4-cyclopropoxyphenyl)-1-hydroxy-3-(pyrrolidin-1-yl)propan-2-yl)-1-(4-(trifluoromethyl)phenyl)pyrrolidine-3-carboxamide] |
| F (1-49% (or less than 50%)) | O=C(N[C@H](CN1CCCC1)[C@H](O)c1ccc(OC2CC2)c(Cl)c1)[C@@H]1CCN(C(=O)c2ccccc2)C1 [Compound 129, (R)-1-benzoyl-N-((1R,2R)-1-(3-chloro-4-cyclopropoxyphenyl)-1-hydroxy-3-(pyrrolidin-1-yl)propan-2-yl)pyrrolidine-3-carboxamide] |
